The results in this text go back to patent US20250353864A1, “INDAZOLE CONTAINING MACROCYCLES AND THEIR USE” (BLOSSOMHILL THERAPEUTICS, INC., priority 2022, published 2025).

What all share (assay type): biochemical
The target in assay [1] is EGFR WT (Homo sapiens (Human), UniProt P00533). As to the kind of experiment: HotSpot radiometric kinase assay (Reaction Biology), EGFR WT. The conditions noted are these: 10 μM ATP. In short, it runs like this:
(§1)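 Radiometric filter-binding read-out: incorporated 33P was retained on P81 ion-exchange paper after washing away unbound phosphate. Reactions ran 120 min at room temperature with 10 μM final ATP, following ~20 min compound preincubation in Hepes pH 7.5 buffer containing 1% DMSO. IC50 from fitted curves.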

For assay [2], the target named is EGFR (D770_N771insNPG) (Homo sapiens (Human), UniProt P00533, INS770NPG). As to the kind of experiment: HotSpot radiometric kinase assay, EGFR (D770_N771insNPG). The conditions noted are these: 10 μM ATP, read-out: EGFR (Δ770_N771insNPG) IC50. In short, it runs like this:
as §1

The target in assay [3] is EGFR Δ746-750 mutant (Homo sapiens (Human), UniProt P00533, DEL746-750). As to the kind of experiment: HotSpot radiometric kinase assay, EGFR Δ746-750 mutant. The conditions noted are these: 10 μM ATP. A digest of the protocol: as §1
The target of assay [4] is EGFR Δ746-750/C797S mutant (Homo sapiens (Human), UniProt P00533, C797S/DEL746-750). As to the kind of experiment: HotSpot radiometric kinase assay, EGFR Δ746-750/C797S mutant. The conditions noted are these: 10 μM ATP. A digest of the protocol: as §1
Assay [5] concerns the target EGFR L858R mutant (Homo sapiens (Human), UniProt P00533, L858R). As to the kind of experiment: HotSpot radiometric kinase assay, EGFR L858R mutant. The conditions noted are these: 10 μM ATP. In short, it runs like this:
as §1

Assay [6] addresses EGFR L858R/T790M mutant (Homo sapiens (Human), UniProt P00533, L858R/T790M). As to the kind of experiment: HotSpot radiometric kinase assay, EGFR L858R/T790M mutant. The conditions noted are these: 10 μM ATP. A digest of the protocol: as §1
Assay [7] concerns the target EGFR L858R/T790M/C797S mutant (Homo sapiens (Human), UniProt P00533, C797S/L858R/T790M). As to the kind of experiment: HotSpot radiometric kinase assay, EGFR L858R/T790M/C797S mutant. The conditions noted are these: 10 μM ATP. In short, it runs like this:
as §1

Assay [8] deals with CLK1 (Homo sapiens (Human), UniProt P49759). As to the kind of experiment: Inhibition of CLK1 kinase activity evaluated at Nanosyn (ADP-Glo). The conditions noted are these: ADP-Glo luminescence. The method, then:
(§2) Inhibition of CLK, CLK2, CLK3 and CLK4 Kinase Activity Evaluated at Nanosyn
(§3) Kinase protein and substrate were pre-diluted in the HEPES assay buffer (100 mM HEPES, pH 7.5, 0.01% Triton X-100, 0.1% BSA, 5 mM MgCl2, […] DTT, 10 Sodium Orthovanadate, […] Beta-Glycerophosphate) dispensed into 384 well plate (5 μL per well). Control samples (0%-inhibition in the absence of inhibitor, DMSO only) and 100%-inhibition (in the absence of enzyme) were assembled in replicates of six and were used to calculate %-inhibition in the presence of compounds. Test compounds were added to the protein samples by acoustic dispensing (Labcyte Echo550). Concentration of DMSO was equalized to 1% in all samples. Reactions were initiated by addition of ATP by acoustic dispensing (Labcyte Echo550) and incubated according to assay specific incubation time. After incubation. 5 μL of Promega ADP-Glo reagent was added and incubated for 40 minutes. After 40 minutes, 10 uL of Promega kinase detection reagent was added. After 10 min of incubation with Kinase detection reagent, the luminescence was read on microplate reader (Biotek Synergy).

Assay [9] concerns the target CLK2 (Homo sapiens (Human), UniProt P49760). As to the kind of experiment: Inhibition of CLK2 kinase activity evaluated at Nanosyn (ADP-Glo). The conditions noted are these: ADP-Glo luminescence. How it is done:
as §2, §3
(In ADP-Glo the light output rises with the ADP produced.)

The target in assay [10] is CLK3 (Homo sapiens (Human), UniProt P49761). As to the kind of experiment: Inhibition of CLK3 kinase activity evaluated at Nanosyn (ADP-Glo). The conditions noted are these: ADP-Glo luminescence. The method, then:
as §2, §3

Assay [11] has as its target CLK4 (Homo sapiens (Human), UniProt Q9HAZ1). As to the kind of experiment: Inhibition of CLK4 kinase activity evaluated at Nanosyn (ADP-Glo). The conditions noted are these: ADP-Glo luminescence. How it is done: as §2, §3

SMILES strings stand for the structures.

EGFR Δ746-750/C797S mutant, sequence (P00533 other isoform, or with tags, fused parts or gaps C797S/del 1-668/del 746-750 limits assumed): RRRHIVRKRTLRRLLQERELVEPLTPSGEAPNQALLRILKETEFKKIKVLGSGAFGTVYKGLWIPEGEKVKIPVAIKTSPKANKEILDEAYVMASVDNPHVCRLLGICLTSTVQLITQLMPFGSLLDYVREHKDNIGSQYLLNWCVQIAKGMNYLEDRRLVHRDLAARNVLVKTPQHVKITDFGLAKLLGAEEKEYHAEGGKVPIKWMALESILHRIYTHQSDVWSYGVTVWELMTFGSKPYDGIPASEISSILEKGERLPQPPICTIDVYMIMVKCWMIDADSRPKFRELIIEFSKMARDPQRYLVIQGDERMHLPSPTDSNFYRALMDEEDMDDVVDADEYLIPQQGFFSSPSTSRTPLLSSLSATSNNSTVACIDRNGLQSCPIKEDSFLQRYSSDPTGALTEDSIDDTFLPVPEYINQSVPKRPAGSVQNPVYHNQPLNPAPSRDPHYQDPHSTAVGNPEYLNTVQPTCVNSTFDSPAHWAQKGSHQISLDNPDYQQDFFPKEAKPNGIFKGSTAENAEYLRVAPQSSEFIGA
EGFR L858R mutant, sequence (P00533 25-1210 L858R): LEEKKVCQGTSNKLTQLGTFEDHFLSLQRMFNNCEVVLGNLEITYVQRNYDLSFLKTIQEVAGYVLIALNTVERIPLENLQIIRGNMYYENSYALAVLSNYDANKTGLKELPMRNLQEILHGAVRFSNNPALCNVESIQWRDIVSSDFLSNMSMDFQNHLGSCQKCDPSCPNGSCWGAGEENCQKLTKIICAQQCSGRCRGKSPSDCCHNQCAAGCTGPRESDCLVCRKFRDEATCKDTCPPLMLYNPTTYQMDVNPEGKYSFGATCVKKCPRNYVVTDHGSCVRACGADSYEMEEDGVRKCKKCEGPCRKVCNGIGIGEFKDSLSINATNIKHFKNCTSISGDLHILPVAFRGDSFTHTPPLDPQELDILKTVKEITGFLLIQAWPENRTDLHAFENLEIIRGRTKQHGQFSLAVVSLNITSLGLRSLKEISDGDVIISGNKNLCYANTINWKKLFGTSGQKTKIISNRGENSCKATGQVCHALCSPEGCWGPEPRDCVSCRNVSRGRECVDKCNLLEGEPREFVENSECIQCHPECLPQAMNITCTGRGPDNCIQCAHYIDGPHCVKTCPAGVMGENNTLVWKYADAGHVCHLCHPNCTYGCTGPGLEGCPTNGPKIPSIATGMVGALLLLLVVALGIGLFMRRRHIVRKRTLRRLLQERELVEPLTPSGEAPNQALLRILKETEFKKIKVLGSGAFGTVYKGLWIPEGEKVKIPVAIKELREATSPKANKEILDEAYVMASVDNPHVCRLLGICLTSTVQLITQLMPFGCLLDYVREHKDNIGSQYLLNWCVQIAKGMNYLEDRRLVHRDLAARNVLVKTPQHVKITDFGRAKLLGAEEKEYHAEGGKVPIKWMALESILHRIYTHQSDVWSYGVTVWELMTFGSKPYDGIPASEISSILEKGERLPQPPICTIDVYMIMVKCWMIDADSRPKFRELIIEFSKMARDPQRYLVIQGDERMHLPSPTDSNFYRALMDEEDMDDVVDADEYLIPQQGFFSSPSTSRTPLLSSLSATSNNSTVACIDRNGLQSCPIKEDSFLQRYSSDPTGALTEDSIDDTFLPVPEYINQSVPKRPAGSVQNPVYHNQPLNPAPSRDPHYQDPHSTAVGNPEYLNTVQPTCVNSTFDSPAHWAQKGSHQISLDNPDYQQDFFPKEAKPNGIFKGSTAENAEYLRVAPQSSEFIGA
CLK1, sequence (P49759 whole entry): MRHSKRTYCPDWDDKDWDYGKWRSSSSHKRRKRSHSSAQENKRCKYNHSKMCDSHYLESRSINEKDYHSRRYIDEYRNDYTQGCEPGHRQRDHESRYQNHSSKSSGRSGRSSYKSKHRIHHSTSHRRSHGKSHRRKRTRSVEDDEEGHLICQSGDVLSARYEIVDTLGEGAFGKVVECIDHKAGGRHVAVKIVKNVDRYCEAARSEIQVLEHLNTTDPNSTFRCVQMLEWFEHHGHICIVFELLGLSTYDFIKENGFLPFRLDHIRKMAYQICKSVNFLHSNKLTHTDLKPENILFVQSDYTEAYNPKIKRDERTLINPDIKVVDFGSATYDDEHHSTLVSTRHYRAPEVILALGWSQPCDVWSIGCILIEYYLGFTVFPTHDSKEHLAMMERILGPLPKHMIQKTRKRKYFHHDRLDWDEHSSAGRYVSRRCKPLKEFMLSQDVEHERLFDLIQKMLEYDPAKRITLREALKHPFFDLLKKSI
CLK4, sequence (Q9HAZ1 whole entry): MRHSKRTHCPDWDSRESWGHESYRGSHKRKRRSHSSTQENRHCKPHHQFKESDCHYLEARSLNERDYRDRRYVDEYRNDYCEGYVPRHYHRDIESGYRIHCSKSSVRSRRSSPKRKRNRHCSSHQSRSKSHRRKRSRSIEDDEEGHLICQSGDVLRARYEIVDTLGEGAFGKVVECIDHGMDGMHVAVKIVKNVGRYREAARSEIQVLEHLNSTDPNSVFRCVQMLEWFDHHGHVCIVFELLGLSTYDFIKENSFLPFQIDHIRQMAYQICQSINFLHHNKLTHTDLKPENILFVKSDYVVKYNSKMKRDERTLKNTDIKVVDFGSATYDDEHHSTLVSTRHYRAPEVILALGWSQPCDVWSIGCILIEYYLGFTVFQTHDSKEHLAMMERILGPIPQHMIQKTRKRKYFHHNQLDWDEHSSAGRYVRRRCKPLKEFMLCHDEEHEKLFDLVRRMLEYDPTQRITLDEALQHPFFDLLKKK
CLK2, sequence (P49760 whole entry): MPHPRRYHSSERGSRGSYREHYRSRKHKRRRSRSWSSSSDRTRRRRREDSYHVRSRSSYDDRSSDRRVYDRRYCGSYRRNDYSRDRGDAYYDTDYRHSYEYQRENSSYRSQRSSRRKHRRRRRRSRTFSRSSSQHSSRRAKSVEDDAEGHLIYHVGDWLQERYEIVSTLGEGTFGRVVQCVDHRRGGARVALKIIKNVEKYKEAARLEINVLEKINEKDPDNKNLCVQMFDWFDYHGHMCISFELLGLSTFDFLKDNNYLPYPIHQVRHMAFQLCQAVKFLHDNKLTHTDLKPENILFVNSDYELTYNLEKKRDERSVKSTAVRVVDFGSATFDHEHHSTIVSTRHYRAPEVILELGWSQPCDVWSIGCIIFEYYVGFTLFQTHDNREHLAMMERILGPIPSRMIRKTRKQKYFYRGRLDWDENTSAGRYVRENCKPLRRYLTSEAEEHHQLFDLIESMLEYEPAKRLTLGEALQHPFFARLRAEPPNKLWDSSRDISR
EGFR WT, sequence (P00533 25-1210): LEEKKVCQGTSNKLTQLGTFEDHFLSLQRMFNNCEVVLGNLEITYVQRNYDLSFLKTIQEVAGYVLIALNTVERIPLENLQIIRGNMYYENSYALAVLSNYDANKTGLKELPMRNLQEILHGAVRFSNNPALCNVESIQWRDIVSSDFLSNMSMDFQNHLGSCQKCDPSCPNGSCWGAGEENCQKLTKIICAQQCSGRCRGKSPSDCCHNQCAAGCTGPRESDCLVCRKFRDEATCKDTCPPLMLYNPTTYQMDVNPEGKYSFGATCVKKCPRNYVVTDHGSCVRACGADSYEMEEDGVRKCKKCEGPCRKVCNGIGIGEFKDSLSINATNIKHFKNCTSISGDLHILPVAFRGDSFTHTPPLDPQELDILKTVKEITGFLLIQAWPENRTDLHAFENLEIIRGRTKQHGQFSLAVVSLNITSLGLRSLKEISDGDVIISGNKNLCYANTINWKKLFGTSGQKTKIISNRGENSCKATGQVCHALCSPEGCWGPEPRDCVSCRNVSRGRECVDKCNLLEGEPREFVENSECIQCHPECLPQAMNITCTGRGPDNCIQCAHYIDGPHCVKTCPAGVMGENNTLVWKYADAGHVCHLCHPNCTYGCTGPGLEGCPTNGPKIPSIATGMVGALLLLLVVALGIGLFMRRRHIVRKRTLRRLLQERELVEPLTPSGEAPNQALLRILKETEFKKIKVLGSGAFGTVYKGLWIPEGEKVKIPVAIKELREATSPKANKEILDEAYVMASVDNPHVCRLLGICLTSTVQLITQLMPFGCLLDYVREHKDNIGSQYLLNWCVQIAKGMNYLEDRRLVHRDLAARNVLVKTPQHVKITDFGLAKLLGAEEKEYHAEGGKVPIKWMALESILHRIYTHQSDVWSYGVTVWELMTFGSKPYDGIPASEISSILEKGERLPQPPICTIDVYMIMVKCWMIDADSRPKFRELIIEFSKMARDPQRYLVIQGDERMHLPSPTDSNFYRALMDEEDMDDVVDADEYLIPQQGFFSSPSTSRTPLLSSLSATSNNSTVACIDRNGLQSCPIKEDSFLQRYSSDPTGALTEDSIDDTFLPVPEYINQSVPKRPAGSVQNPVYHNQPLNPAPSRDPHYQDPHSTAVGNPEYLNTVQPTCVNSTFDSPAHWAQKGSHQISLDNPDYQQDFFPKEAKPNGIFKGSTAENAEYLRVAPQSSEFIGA
EGFR Δ746-750 mutant, sequence (P00533 other isoform, or with tags, fused parts or gaps del 1-668/del 746-750 limits assumed): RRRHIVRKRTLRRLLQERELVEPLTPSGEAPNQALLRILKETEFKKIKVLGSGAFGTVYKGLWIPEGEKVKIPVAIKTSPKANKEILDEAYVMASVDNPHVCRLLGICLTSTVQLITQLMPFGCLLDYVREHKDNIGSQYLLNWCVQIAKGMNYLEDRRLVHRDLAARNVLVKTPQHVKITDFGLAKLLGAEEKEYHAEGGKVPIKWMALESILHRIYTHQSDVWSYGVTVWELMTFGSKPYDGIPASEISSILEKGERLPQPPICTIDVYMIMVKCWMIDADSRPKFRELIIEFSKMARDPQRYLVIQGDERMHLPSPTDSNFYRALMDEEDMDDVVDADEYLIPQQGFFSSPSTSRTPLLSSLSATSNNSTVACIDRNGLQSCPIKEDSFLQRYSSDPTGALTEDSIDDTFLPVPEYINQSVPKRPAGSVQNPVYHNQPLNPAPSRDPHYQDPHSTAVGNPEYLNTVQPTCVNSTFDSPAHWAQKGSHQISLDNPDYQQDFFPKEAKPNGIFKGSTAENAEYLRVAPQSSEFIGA

With `CCOc1nn(CCO)c2c1/C=C/c1n[nH]c3cc(F)c(cc13)-c1cnn(C)c1O[C@@H](C)CN(C)C2` [Example 172, 2-[(10S,17E)-16-ethoxy-19-fluoro-8,10,12-trimethyl-2,8,10,11,12,13-hexahydro-14H-3,5-ethenotripyrazolo[3,4-f:3′,4′-j:4″,3″- n][1,4]oxazacyclopentadecin-14-yl]ethan-1-ol], the IC50 in assay [1] was 1.84 nM; in assay [2], 6.61 nM; in [3], 2.1 nM; in [4], 0.69 nM; in assay [5] it was 0.6 nM; in assay [6], 0.48 nM. Moreover, the IC50 worked out at 1.34 nM in [7]; 0.32 nM in [8]; 0.08 nM in [9]; 64.7 nM in [10]; 0.59 nM in [11].

Turning to `CCOc1nn(CC(C)(C)O)c2c1/C=C/c1n[nH]c3ccc(cc13)-c1cnn(C)c1O[C@@H](C)CN(CC)C2` [Example 222, 1-[(10S,17E)-16-ethoxy-12-ethyl-8,10-dimethyl-2,8,10,11,12,13-hexahydro-14H-3,5-ethenotripyrazolo[3,4-f:3′,4′-j:4″,3″-n][1,4]oxazacyclopentadecin-14-yl]-2-methylpropan-2-ol], the IC50 was determined as 27.8 nM in [1]; 57.8 nM in [2]; 1.77 nM in assay [3]; 2.17 nM in assay [4]; 4.75 nM in [5]; 0.31 nM in assay [6]. Besides, the IC50 in assay [7] was 0.18 nM; in assay [8], 2.31 nM; in assay [9], 3.17 nM; in assay [10] it was 306 nM; in assay [11] it was 2.46 nM.

For `Cc1nn(C)c2c1/C=C/c1n[nH]c3ccc(cc13)-c1cnn(C)c1CN(C)CCO2` [Example 55, (17E)-8,10,14,16-tetramethyl-2,9,10,11,12,14-hexahydro-8H-3,5-ethenotripyrazolo[3,4-f:4′,3′-j:4″,3″- n][1,4]oxazacyclopentadecine], the half-maximal inhibitory concentration (IC50) in assay [1] was found to be 101 nM; in [2] it was 78.3 nM; in assay [3], 33.4 nM; in assay [4] it was 8.93 nM; in assay [5] it was 35.2 nM; in assay [7], 4.1 nM. The IC50 stood at 0.09 nM in assay [8], 0.13 nM in assay [9], 185 nM in [10] and 0.58 nM in [11].

Regarding `Cc1noc2c1/C=C/c1n[nH]c3ccc(cc13)-c1cnn(C)c1O[C@@H](C)CN(C)C2` [Example 141, (10S,17E)-8,10,12,16-tetramethyl-2,8,10,11,12,13-hexahydro-3,5-etheno[1,2]oxazolo[5,4-f]dipyrazolo[3,4-j:4′,3′-n][1,4]oxazacyclopentadecine], the IC50 in [8] was determined as 0.11 nM; in [9], 0.03 nM; in assay [10], 41.9 nM; in [11] it was 0.13 nM.

In the case of `CC(=O)N1CCOc2c(cnn2C)-c2ccc3[nH]nc(c3c2)/C=C/c2c(nn(C)c2C)C1` [Example 52, 1-[(17E)-8,15,16-trimethyl-2,8,10,11,13,15-hexahydro-12H-3,5-ethenotripyrazolo[3,4-f:3′,4′-j:4″,3″- n][1,4]oxazacyclopentadecin-12-yl]ethan-1-one], the IC50 in [8] was 0.24 nM; in assay [9], 0.19 nM; in assay [10], 148 nM; in assay [11], 0.56 nM.

On to `Cc1snc2c1/C=C/c1n[nH]c3ccc(cc13)-c1cnn(C)c1O[C@@H](C)CN(C)C2` [Example 158, (10S,17E)-8,10,12,16-tetramethyl-2,8,10,11,12,13-hexahydro-3,5-ethenodipyrazolo[3,4-j:4′,3′-n][1,2]thiazolo[3,4-f][1,4]oxazacyclopentadecine], for which the IC50 in assay [8] came to 0.14 nM; in [9], 0.4 nM; in assay [10], 664 nM; in [11], 0.31 nM.

With `Cc1nn(C)c2c1/C=C/c1n[nH]c3ccc(cc13)-c1cnn(C)c1COCCO2` [Ex. 6, (17E)-8,14,16-trimethyl-2,8,9,11,12,14-hexahydro-3,5-etheno[1,4]dioxacyclopentadecino[11,10-c:15,14-c′:6,7-c″ ]tripyrazole], the IC50 turned out to be 0.34 nM in assay [8], 0.23 nM in assay [9], 178 nM in assay [10] and 0.52 nM in assay [11].

With `CCN1Cc2c(c(OC(C)C)nn2C[C@H](C)O)/C=C/c2n[nH]c3cc(F)c(cc23)-c2cnn(C)c2O[C@@H](C)C1` [Example 296, (2S)-1-{(10S,17E)-12-ethyl-19-fluoro-8,10-dimethyl-16-[(propan-2-yl)oxy]-2,8,10,11,12,13-hexahydro-14H-3,5-ethenotripyrazolo[3,4-f:3′,4′-j:4″,3″-n][1,4]oxazacyclopentadecin-14-yl}propan-2-ol], the IC50 is 1.2 nM in assay [8], 1.15 nM in assay [9], 33.4 nM in assay [10] and 1.57 nM in [11].

With `CCNc1nn(CCO)c2c1/C=C/c1n[nH]c3ccc(cc13)-c1cnn(C)c1O[C@@H](C)CN(C)C2` [Example 295, 2-[(10S,17E)-16-(ethylamino)-8,10,12-trimethyl-2,8,10,11,12,13-hexahydro-14H-3,5-ethenotripyrazolo[3,4-f:3′,4′-j:4″,3″-n][1,4]oxazacyclopentadecin-14-yl]ethan-1-ol], the IC50 in assay [8] was 0.64 nM; in [9], 0.78 nM; in assay [10], 13.8 nM; in assay [11], 1.12 nM.

On to `CCOc1c2c(nn1C)CN(C(C)=O)CCOc1c(cnn1C)-c1ccc3[nH]nc(c3c1)/C=C/2` [Example 294, 1-[(17E)-16-ethoxy-8,15-dimethyl-2,8,10,11,13,15-hexahydro-12H-3,5-ethenotripyrazolo[3,4-f:3′,4′-j:4″,3″- n][1,4]oxazacyclopentadecin-12-yl]ethan-1-one], for which the IC50 in assay [8] was found to be 1.27 nM; in assay [9], 3.25 nM; in assay [10] it was 1000 nM; in assay [11], 1.37 nM.

Turning to `Cc1nn(C)c2c1/C=C/c1n[nH]c3ccc(cc13)-c1cnn(C)c1O[C@@H](C)CN(C)[C@H]2C` (single isomer, unassigned) [Example 145], the IC50 in assay [8] was determined as 0.21 nM; in assay [9], 0.04 nM; in assay [10], 99.6 nM; in assay [11], 0.52 nM.

For `C[C@H]1CN(C)Cc2c(c(C#N)nn2CCO)/C=C/c2n[nH]c3ccc(cc23)-c2cnn(C)c2O1` [Example 208, (10S,17E)-14-(2-hydroxyethyl)-8,10,12-trimethyl-2,10,11,12,13,14-hexahydro-8H-3,5-ethenotripyrazolo[3,4-f:3′,4′-j:4″,3″-n][1,4]oxazacyclopentadecine-16-carbonitrile], the IC50 in assay [8] is 0.59 nM; in [9] it was 0.13 nM; in assay [10] it was 220 nM; in assay [11] it was 1.53 nM.

On to `CCOc1nn(CCO)c2c1/C=C/c1n[nH]c3ccc(cc13)-c1c(C#N)nn(C)c1O[C@@H](C)CN(CC)C2` [Example 290, (10S,17E)-16-ethoxy-12-ethyl-14-(2-hydroxyethyl)-8,10-dimethyl-2,10,11,12,13,14-hexahydro-8H-3,5-ethenotripyrazolo[3,4-f:3′,4′-j:4″,3″-n][1,4]oxazacyclopentadecine-6-carbonitrile], for which the IC50 was found to be 69.4 nM in assay [8], 102 nM in assay [9], 1000 nM in assay [10] and 38.1 nM in [11].

Turning to `Cc1c2c(nn1C)OCCOCc1c(cnn1C)-c1ccc3[nH]nc(c3c1)/C=C/2` [Ex. 7, (17E)-8,15,16-trimethyl-2,8,9,11,12,15-hexahydro-3,5-etheno[1,4]dioxacyclopentadecino[11,10-c:15,14-c′:6,7-c″]tripyrazole], the IC50 was more than 1000 nM in assay [1]; 2120 nM in assay [2]; 898 nM in assay [3]; 687 nM in [5]; 202 nM in [7]; 0.2 nM in [8]. The IC50 came to 0.08 nM in [9], 45.2 nM in assay [10] and 0.48 nM in [11].

By IC50 is commonly meant the concentration needed to halve the response being measured.
